Test results: patent US7378425B2, “(1-Indanone)-(1,2,3,6-tetrahydropyridine) compounds” (Eisai R & D Management Co., Ltd., priority 2002, dated 2008)
pIC50: −log10 of the molar value. Where a name gives a salt, the structure may show the parent alone. Read-outs that look alike come from different tables or passages of the source.

Experiments:
[1] = target: sigma receptor (guinea pig brain crude membrane fraction); assay: Sigma receptor binding assay (3H-DTG); conditions: inhibition of 3H-DTG binding to guinea pig brain crude membrane fraction, 25° C., 1 hour
Protocol: Sigma Receptor Binding Assay
(1) Preparation of Receptor
The washing procedure was repeated once more under the same conditions, and the resulting crude membrane fraction was subjected to the assay.
The specific binding and the non-specific binding in the absence of the test compound were determined in the same way as above except for using 50% DMSO solution instead of the test compound and using a 100 μM Haloperidol solution instead of the test compound, respectively.
(3) Determination of Inhibition
The inhibitions of the test compound at individual concentrations were determined from the ratio of the specific binding in the presence of the test compound to the specific binding in the absence thereof. The dose-response curve was regressed according to a logit-log model in which the ratio of the specific binding in the presence of the test compound to the specific binding in the absence thereof was subjected to logit transformation and plotted against the common logarithm value of each concentration.

[2] = target: T1, acetylcholinesterase (rat brain homogenate) (Rattus norvegicus, UniProt P37136); assay: biochemical
T1 construct: Using a rat brain homogenate as a source of acetylcholinesterase; from tissue; host or cells: rat brain homogenate
T1 sequence (P37136 32-614): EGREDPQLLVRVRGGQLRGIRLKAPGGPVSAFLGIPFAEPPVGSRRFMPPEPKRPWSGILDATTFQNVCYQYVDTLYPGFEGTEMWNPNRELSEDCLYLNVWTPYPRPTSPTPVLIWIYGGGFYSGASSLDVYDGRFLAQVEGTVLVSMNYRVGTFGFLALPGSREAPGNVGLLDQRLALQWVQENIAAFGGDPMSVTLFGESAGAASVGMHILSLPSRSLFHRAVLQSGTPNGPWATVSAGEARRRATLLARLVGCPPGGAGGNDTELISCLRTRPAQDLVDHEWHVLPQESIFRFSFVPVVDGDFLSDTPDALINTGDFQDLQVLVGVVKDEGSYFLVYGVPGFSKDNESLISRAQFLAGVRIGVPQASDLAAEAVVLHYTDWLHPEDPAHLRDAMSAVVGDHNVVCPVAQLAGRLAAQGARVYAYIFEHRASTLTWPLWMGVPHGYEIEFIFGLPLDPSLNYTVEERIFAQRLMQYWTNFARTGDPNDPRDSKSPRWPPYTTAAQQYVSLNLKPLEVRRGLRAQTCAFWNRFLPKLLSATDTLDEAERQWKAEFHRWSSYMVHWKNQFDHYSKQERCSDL
Protocol: Inhibitory Effect on Acetylcholinesterase
To DTNB (5,5′-dithiobis(2-nitrobenzoic acid)), acethylthiocholine (as a substrate) and a test compound was added the rat brain homogenate and incubated.

With `CCOc1cc2c(cc1OCC)C(=O)C(CC1=CCN(Cc3ccccc3)CC1)C2` (stereo not shown) [Example 2, 1-benzyl-4-[(5,6-diethoxy-1-indanon)-2-yl]methyl-1,2,3,6-tetrahydropyridine hydrochloride] the pIC50 [1] was 8.30.

Work on `CCOc1cc2c(cc1OCC)C(=O)C(F)(CC1=CCN(Cc3ccccc3)CC1)C2` (stereo not shown) [Example 3, 1-benzyl-4-[(5,6-diethoxy-2-fluoro-1-indanon)-2-yl]methyl-1,2,3,6-tetrahydropyridine hydrochloride] yielded a pIC50 ([2]; rat brain homogenate, acetylthiocholine substrate, DTNB, absorbance at 412 nm, read-out: Acetylcholinesterase inhibition IC50) of 9.40 and a pIC50 [1] of 8.33.

`COc1cc2c(cc1OC)C(=O)C(CC1=CCN(Cc3ccccc3)CC1)C2` (stereo not shown) [Example 1, 1-benzyl-4-[(5,6-dimethoxy-1-indanon)-2-yl]methyl-1,2,3,6-tetrahydropyridine hydrochloride] showed a pIC50 [2] of 8.38.
